Values joined by “and” are separate entries in the source; they are usually repeats but may differ in a detail not shown here. Equal values may be shown once. Read-outs that look alike come from different tables or passages of the source.
What was measured:
AHR [1] = target: T1, AHR (Homo sapiens, UniProt P35869); test: In vitro assay 1: antagonism in human cell line (AHR transactivation, firefly luciferase reporter, kynurenic acid prestimulated); assay type: cell-based; settings: AHR Antagonism Human IC50 [M]
T1 construct: U87 MG glioblastoma cells (ATCC #HTB-14) endogenously expressing AHR; endogenous in cells; host or cells: U87 MG glioblastoma cells (ATCC #HTB-14)
T1 sequence (P35869 11-848): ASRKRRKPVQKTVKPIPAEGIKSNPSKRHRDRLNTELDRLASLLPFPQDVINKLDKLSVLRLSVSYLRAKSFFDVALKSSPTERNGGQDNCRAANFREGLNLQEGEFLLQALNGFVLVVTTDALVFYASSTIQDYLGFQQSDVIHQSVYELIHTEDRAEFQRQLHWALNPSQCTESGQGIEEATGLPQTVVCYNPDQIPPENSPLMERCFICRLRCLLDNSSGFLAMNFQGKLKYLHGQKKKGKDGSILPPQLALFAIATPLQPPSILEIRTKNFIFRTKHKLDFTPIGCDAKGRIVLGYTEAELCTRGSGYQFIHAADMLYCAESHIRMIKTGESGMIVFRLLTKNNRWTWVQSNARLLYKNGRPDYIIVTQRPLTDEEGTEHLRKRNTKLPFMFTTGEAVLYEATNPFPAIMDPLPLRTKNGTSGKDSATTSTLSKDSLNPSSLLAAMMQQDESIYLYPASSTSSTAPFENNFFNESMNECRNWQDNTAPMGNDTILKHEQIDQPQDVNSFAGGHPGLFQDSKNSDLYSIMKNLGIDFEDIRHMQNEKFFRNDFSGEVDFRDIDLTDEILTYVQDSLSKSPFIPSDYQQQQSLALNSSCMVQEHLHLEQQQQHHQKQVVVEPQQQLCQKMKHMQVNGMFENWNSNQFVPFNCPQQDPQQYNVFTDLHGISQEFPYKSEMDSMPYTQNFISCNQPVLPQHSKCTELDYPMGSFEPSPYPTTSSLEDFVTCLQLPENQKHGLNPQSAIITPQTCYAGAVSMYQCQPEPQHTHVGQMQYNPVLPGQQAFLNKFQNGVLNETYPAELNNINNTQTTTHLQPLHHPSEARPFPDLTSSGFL
Summary of the method: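 Antagonism is measured against kynurenic acid prestimulation in U87 MG glioblastoma cells carrying stable DRE-luciferase and Renilla reporters. Positive inhibition control: 150 μM kynurenic acid with 5 μM staurosporine. Values are normalized to controls; repeats are averaged or given as medians.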

AHR [2] = target: T2, AHR (Mus musculus, UniProt P30561); test: In vitro assay 3: antagonism in mouse cell line (AHR transactivation, firefly luciferase reporter, kynurenic acid prestimulated); assay type: cell-based
T2 sequence (P30561 1-848 P471L/N533S/M589L): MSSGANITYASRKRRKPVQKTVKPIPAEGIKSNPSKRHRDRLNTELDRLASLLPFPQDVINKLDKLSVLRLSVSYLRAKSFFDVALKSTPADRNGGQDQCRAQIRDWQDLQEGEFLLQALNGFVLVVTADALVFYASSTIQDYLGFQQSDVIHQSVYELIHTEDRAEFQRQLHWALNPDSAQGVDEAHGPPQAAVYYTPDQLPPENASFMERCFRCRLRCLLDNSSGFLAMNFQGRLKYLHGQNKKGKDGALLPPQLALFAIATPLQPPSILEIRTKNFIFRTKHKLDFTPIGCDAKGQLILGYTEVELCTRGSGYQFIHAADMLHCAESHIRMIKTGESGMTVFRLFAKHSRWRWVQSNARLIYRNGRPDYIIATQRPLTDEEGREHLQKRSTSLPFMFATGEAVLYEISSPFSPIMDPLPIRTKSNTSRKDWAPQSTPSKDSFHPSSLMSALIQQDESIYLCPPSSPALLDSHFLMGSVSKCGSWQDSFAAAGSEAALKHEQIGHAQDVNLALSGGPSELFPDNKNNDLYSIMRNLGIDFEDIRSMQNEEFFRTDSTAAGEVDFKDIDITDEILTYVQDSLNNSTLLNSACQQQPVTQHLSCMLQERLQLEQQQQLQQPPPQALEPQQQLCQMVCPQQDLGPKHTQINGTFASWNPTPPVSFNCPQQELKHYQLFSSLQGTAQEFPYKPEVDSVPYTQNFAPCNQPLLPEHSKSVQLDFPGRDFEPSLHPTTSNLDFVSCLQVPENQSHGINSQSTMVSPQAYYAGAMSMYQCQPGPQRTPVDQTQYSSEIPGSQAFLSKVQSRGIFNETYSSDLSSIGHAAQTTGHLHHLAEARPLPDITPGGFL
Summary of the method: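 Luminescence from an AHR-dependent DRE-luciferase reporter, stably integrated in mouse cells, quantifies blockade of kynurenic acid-driven activation. Unstimulated cells mark maximal inhibition; normalization uses both control types, and multiply tested compounds carry mean or median values.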

[3] = mouse Hepa 1c1c7 cells, 200 μM kynurenic acid, 20 hours, read-out: AHR Antagonism Mouse IC50
[4] = Hepa 1c1c7 cells, 200 μM kynurenic acid, 20 hours, firefly luciferase reporter, read-out: AHR Antagonism Mouse IC50
[5] = read-out: AHR Antagonism Mouse IC50, mouse Hepa 1c1c7 cells, 200 μM kynurenic acid, 20 hours

| Compound | IC50 (AHR [1]) | IC50 (AHR [2]; [3]) [µM] | IC50 (AHR [1]; firefly luciferase reporter) [M] | IC50 (AHR [2]; [4]) [µM] | IC50 (AHR [2]; [5]) [µM] |
| --- | --- | --- | --- | --- | --- |
| O=C1NCCCC[C@H]1Nc1nc2c(Br)cccc2c2nc(-c3ccccc3OC(F)(F)F)nn12 [Example 208, (3R)-3-({7-bromo-2-[2-(trifluoromethoxy)phenyl][1,2,4]triazolo[1,5-c]quinazolin-5-yl}amino)azepan-2-one] | 1.34e-06 M | 0.0238 |  |  |  |
| COc1ccc(-c2nc3c4ccccc4nc(N[C@@H]4CCCCNC4=O)n3n2)c(C(F)(F)F)c1 [Example 512, (3R)-3-({2-[4-methoxy-2-(trifluoromethyl)phenyl][1,2,4]triazolo[1,5-c]quinazolin-5-yl}amino)azepan-2-one] | 1.04e-08 M | 0.00248 |  |  |  |
| COc1ccc(-c2nc3c4ccccc4nc(N[C@H](C)C(=O)N4CCNCC4)n3n2)cc1 [Example 988, (2R)-2-{[2-(4-methoxyphenyl)[1,2,4]triazolo[1,5-c]quinazolin-5-yl]amino}-1-(piperazin-1-yl)propan-1-one-hydrogen chloride (1/1)] |  |  | 1.49e-08 | 0.0138 |  |
| Cn1cc(-c2nc3c4cc(F)ccc4nc(N[C@@H]4CCCCNC4=O)n3n2)cn1 [Example 232, (3R)-3-{[9-fluoro-2-(1-methyl-1H-pyrazol-4-yl)[1,2,4]triazolo[1,5-c]quinazolin-5-yl]amino}azepan-2-one] | 8.83e-09 M |  |  |  | 0.00388 |
| CC(C)[C@@H](Nc1nc2ccccc2c2nc(-c3ccccc3)nn12)C(N)=O [Example 3, N^2-(2-phenyl[1,2,4]triazolo[1,5-c]quinazolin-5-yl)-D-valinamide] | 1.82e-09 M | 0.000428 |  |  |  |
| CCCNC(=O)[C@@H](C)Nc1nc2c(Br)cccc2c2nc(-c3ccc(Cl)cc3OC(F)F)nn12 [Example 692, N^2-{7-bromo-2-[4-chloro-2-(difluoromethoxy)phenyl][1,2,4]triazolo[1,5-c]quinazolin-5-yl}-N-propyl-D-alaninamide] | 6.79e-10 M | 0.000308 |  |  |  |
| COc1cccc2c1nc(N[C@@H]1CCCCNC1=O)n1nc(-c3cnn(C4CC4)c3)nc21 [Example 757, (3R)-3-{[2-(1-cyclopropyl-1H-pyrazol-4-yl)-7-methoxy[1,2,4]triazolo[1,5-c]quinazolin-5-yl]amino}azepan-2-one] | 5.4e-08 M | 0.109 |  |  |  |
| COc1ccc(-c2nc3c4cccc(Br)c4nc(N[C@H]4COCCNC4=O)n3n2)cc1 [Example 681, (6S)-6-{[7-bromo-2-(4-methoxyphenyl)[1,2,4]triazolo[1,5-c]quinazolin-5-yl]amino}-1,4-oxazepan-5-one] | 1.45e-08 M | 0.0131 |  |  |  |
| CC(C)n1cc(-c2nc3c4cccc(C5CC5)c4nc(N[C@@H]4CCCCNC4=O)n3n2)cn1 [Example 820, (3R)-3-({7-cyclopropyl-2-[1-(propan-2-yl)-1H-pyrazol-4-yl][1,2,4]triazolo[1,5-c]quinazolin-5-yl}amino)azepan-2-one] |  |  | 6.33e-09 | 0.0715 |  |
| CCC[C@@H](Nc1nc2ccccc2c2nc(-c3cc(F)ccc3OC(F)(F)F)nn12)C(=O)NC [Example 494, N^2-{2-[5-fluoro-2-(trifluoromethoxy)phenyl][1,2,4]triazolo[1,5-c]quinazolin-5-yl}-N-methyl-D-norvalinamide] | 2.28e-07 M | 0.0111 |  |  |  |
| CC[C@@H](Nc1nc2c(Br)cccc2c2nc(-c3ccc(OC)cc3OC(F)(F)F)nn12)C(N)=O [Example 567, (2R)-2-({7-bromo-2-[4-methoxy-2-(trifluoromethoxy)phenyl][1,2,4]triazolo[1,5-c]quinazolin-5-yl}amino)butanamide] | 1.21e-08 M |  |  |  | 0.00305 |
| COc1ccc(-c2nc3c4cccc(C(=O)OC(C)C)c4nc(N[C@@H]4CCCCNC4=O)n3n2)cc1 [Example 653, propan-2-yl 2-(4-methoxyphenyl)-5-{[(3R)-2-oxoazepan-3-yl]amino}[1,2,4]triazolo[1,5-c]quinazoline-7-carboxylate] | 2.58e-07 M | > 20 |  |  |  |
| COc1cccc(-c2nc3c4cc(F)ccc4nc(NC4CCNC4=O)n3n2)c1 (single isomer, unassigned) [Example 186, 3-{[9-fluoro-2-(3-methoxyphenyl)[1,2,4]triazolo[1,5-c]quinazolin-5-yl]amino}pyrrolidin-2-one] | 2.09e-08 M | 0.0276 |  |  |  |
| N#Cc1cccc(-c2nc3c4ccccc4nc(N[C@@H]4CCCNC4=O)n3n2)c1 [Example 384, 3-(5-{[(3R)-2-oxopiperidin-3-yl]amino}[1,2,4]triazolo[1,5-c]quinazolin-2-yl)benzonitrile] | 2.73e-07 M | 0.0722 |  |  |  |
| CCCNC(=O)[C@@H](C)Nc1nc2c(Br)cccc2c2nc(-c3ccc(Cl)cc3OC(F)(F)F)nn12 [Example 693, N^2-{7-bromo-2-[4-chloro-2-(trifluoromethoxy)phenyl][1,2,4]triazolo[1,5-c]quinazolin-5-yl}-N-propyl-D-alaninamide] | 7.43e-09 M | 0.00252 |  |  |  |
| Cn1cc(-c2nc3c4cccc(C(F)(F)F)c4nc(N[C@@H]4CNCCNC4=O)n3n2)cn1 [Example 425, (6R)-6-{[2-(1-methyl-1H-pyrazol-4-yl)-7-(trifluoromethyl)[1,2,4]triazolo[1,5-c]quinazolin-5-yl]amino}-1,4-diazepan-5-one] | 6.84e-09 M | 0.0239 |  |  |  |
| COc1cccc(-c2nc3c4ccccc4nc(N[C@H](C)C(=O)NC4CCC4)n3n2)c1 [Example 109, N-cyclobutyl-N^2-[2-(3-methoxyphenyl)[1,2,4]triazolo[1,5-c]quinazolin-5-yl]-D-alaninamide] | 6.94e-09 M | 0.00415 |  |  |  |
| O=C1NCCCC[C@@H]1Nc1nc2ccccc2c2nc(-c3cccc(F)c3)nn12 [Example 10, (3S)-3-{[2-(3-fluorophenyl)[1,2,4]triazolo[1,5-c]quinazolin-5-yl]amino}azepan-2-one] | 2.71e-08 M |  |  |  | 0.00793 |
| Cn1cc(-c2nc3c4ccccc4nc(NC4CNCCNC4=O)n3n2)cn1 (single isomer, unassigned) [Example 23, 6-{[2-(1-methyl-1H-pyrazol-4-yl)[1,2,4]triazolo[1,5-c]quinazolin-5-yl]amino}-1,4-diazepan-5-one] | > 2e-05 M and 1.65e-05 M | 3.38 |  |  |  |
| N#Cc1ccc(-c2nc3c4cccc(Br)c4nc(N[C@@H]4CCCNC4=O)n3n2)cc1 [Example 560, 4-(7-bromo-5-{[(3R)-2-oxopiperidin-3-yl]amino}[1,2,4]triazolo[1,5-c]quinazolin-2-yl)benzonitrile] | 3.8e-09 M | 0.00557 |  |  |  |
| CC[C@H](Nc1nc2ccccc2c2nc(-c3ccccc3S(C)(=O)=O)nn12)C(N)=O [Example 450, (2S)-2-({2-[2-(methanesulfonyl)phenyl][1,2,4]triazolo[1,5-c]quinazolin-5-yl}amino)butanamide] | > 2e-05 M | 8.57 |  |  |  |

From patent publication US20230113037A1 (Bayer Aktiengesellschaft, priority 2019, published 2023)
